Results published in ChEMBL document CHEMBL1122177, “Mechanism of action of 5-nitro-2'-deoxyuridine” (J Med Chem, 1982).

How the values were obtained:
Assay type in all cases: functional, cell-based
Conditions in all cases: Mus musculus
L1210 [1] = test: Effective concentration for growth inhibition of L1210 cells in culture in the presence of 10 uM of dThd
S49 [2] = test: Effective concentration for growth inhibition of S49 cells in culture in the presence of 10 uM of dUrd
L1210 [3] = test: Effective concentration for growth inhibition of L1210 cells in culture in the presence of 10 uM of dUrd
L1210 [4] = test: Effective concentration to inhibit growth of L1210 cells in culture
S49 [5] = test: Effective concentration to inhibit growth of S49 cells in culture

## O=c1[nH]c(=O)n([C@H]2C[C@H](O)[C@@H](CO)O2)cc1[N+](=O)[O-]
L1210 [1]
  EC50: > 3000 nM
S49 [2]
  EC50: 60 nM
L1210 [3]
  EC50: 120 nM
L1210 [4]
  EC50: 33 nM
S49 [5]
  EC50: 30 nM
